Data reported in article PMC6021111, “Murine leukemia virus p12 tethers the capsid-containing pre-integration complex to chromatin by binding directly to host nucleosomes in mitosis” (PLoS Pathogens, 2018).

What was measured:
[1] = test system: Glycogen synthase kinase 3 (GSK3); conditions: cited from earlier work
[2] = test system: H2B precipitation with GST-p12_M63I, 293T cells; assay: Kinase inhibition, H2B pull-down with GST-p12_M63I; assay type: cell-based; conditions: 3.5 h with nocodazole and 10 μM MG132, immunoblot
Procedure: (§1) Glycogen synthase kinase 3 (GSK3) and cyclin-dependent kinase 5 (CDK5) were predicted to phosphorylate Mo-MLV p12 on S61, by the NetPhos 3.1 kinase prediction algorithm. […] These drugs were tested in our biochemical assays for their ability to reduce GST-p12_M63I phosphorylation and chromatin association. In our assays, cells transiently-expressing GST-p12_M63I were cultured in media containing nocodazole overnight, prior to the addition of the kinase inhibitors. […] After removal of the drugs, cells were immediately washed and lysed for glutathione-sepharose bead pull-down assays. The eluates from the beads were analysed by SDS-PAGE followed by sequential staining with PQ and SR dyes to quantify the phosphorylation levels of GST-p12_M63I. LiCl treatment had little effect on GST-p12_M63I phosphorylation (Fig 7A, lane 2). […] To correlate GST-p12_M63I phosphorylation with its ability to interact with chromatin, we quantified the amounts of H2B in the pull-down eluates by immunoblotting. […] The short period of kinase inhibition used in our assays, may have limited the effects observed on GST-p12_M63I phosphorylation.
(§2) GST-p12 proteins were expressed in 293T cells from pCAGGS/GST-derived plasmids by transient transfection using Turbofect (Thermo Fisher Scientific). Approximately 24 h after transfection, cells were changed into fresh media containing either 400 ng/ml nocodazole (Sigma) or 2 μg/ml aphidicolin (Sigma) and incubated overnight at 37°C. The synchronisation of the cell cultures after drug treatment was assessed by propidium iodide staining and cell cycle phase analysis by flow cytometry. Cells to be used in pull down assays were washed and lysed in 20 mM Tris pH 8.0, 300 mM NaCl, 1 mM EDTA, 10% Glycerol, 1% Triton X-100, protease inhibitors (Roche), phosphatase inhibitors (Merck). Lysis was facilitated by passing the lysates through a 19-gauge needle x7 and sonication, x7 pulses, 30 s ON and 30 s OFF, in an ice bath (Decon FS100). […] ProQ diamond and Sypro ruby staining (Thermo Fisher Scientific) of gels was visualised and quantified on a ChemiDoc imaging system (Bio-Rad). […]

[3] = test system: GST-p12_M63I phosphorylation in 293T cells; assay: Kinase inhibition, GST-p12_M63I phosphorylation (PQ/SR); assay type: cell-based
Procedure: as §1, §2

GST-p12_WT = assay: SILAC-MS of proteins enriched with GST-p12_WT relative to GST; assay type: binding, Mo-MLV; conditions: for SDs from the mean: log2(GST-p12_WT, Heavy/GST, Light)
Text: To test whether GST-p12 was acting like the p12 region of Gag, we used a global proteomic approach based on stable isotope labelling by amino acids in cell culture (SILAC)-mass spectrometry (MS) to look for host proteins that interact with GST-p12 [35, 36]. A schematic diagram of the workflow is illustrated in Fig 4A. Briefly, GST, GST-p12_mut14 and GST-p12_WT were transiently-expressed in 293T cells cultured in light (R0/K0), medium (R6/K4) and heavy (R10/K8) SILAC media, respectively. Next, lysates of nocodazole treated transfected cells were prepared, normalised and used for parallel pull-down assays with glutathione-sepharose beads. The eluates from the beads were then pooled in a 1:1:1 ratio and subjected to LC-MS/MS analysis. The experiment was performed using biological replicates to test reproducibility of the mass-spec hits. The pull-down assays for this experiment were performed using mitotic cell lysates to facilitate identification of any potential chromatin interactions that were previously missed.
After removal of obvious contaminants (e.g. keratin) and non-quantified hits, 948 and 879 proteins were identified in replicates 1 and 2 (R1 and R2) of the experiment respectively (the false discovery rate (FDR) was set at 5%). To select proteins enriched in the heavy-labelled (H) GST-p12_WT sample relative to the light-labelled (L) GST sample, we compared the log2(H/L) silac ratios of the mass-spectrometry hits. When plotted as a frequency distribution, the log2(H/L) ratios of each replicate fitted well to a normal distribution curve (R^2 ≥ 0.98), allowing the mean and standard deviation to be accurately estimated (Fig 4B). In this experiment, contaminants/non-specifically bound cellular proteins were assumed to cluster around the mean of the distribution. […] Twenty one such proteins were identified in R1 and 22 identified in R2 (Fig 4B Venn diagram). […] These proteins were then ranked based on normalised abundance in the group. In mass-spectrometry analysis, larger proteins are in general assigned higher scores. Therefore, to control for protein size, we divided the number of peptide spectral matches identified for each protein with its length and then normalised the values across the group (Fig 4C and 4D). When ranked this way, the clathrin heavy chain (CLTC), clathrin interactor 1 (CLINT1) and NEDD4-like E3 ubiquitin ligase (WWP2) were identified as the top three hits. […] The function of clathrin in MLV infection is unclear. […] Thus, clathrin binding may be relevant to the early stages of MLV replication and should be investigated further.
For SILAC-MS experiments, 293T cells were grown is media containing light (R0K0, ^12C-Arginine and ^12C-Lysine), medium (R6K4, ^13C-Arginine and Lysine-4,4,5,5-d4) or heavy (R10K8, ^13C+^15N-Arginine and ^13C+^15N-Lysine) versions of L-Arginine and L-Lysine amino acids (Pierce) for a minimum of 6 doublings before transient expression of GST-p12 proteins. After performing the glutathione-sepharose pull-down assays equivalent volumes of the beads eluates were pooled and submitted to the Bristol University Proteomics Facility for RP nano-LC-MS/MS analysis. This analysis was performed on an LTQ-Orbitrap Velos mass spectrometer in line with a Dionex Ultimate 3000 nanoHPLC system as described in [53].
Supplementary file ppat.1007117.s005.xlsx: S1 Table Results from the first SILAC-MS analysis. GST, Mo-MLV GST-p12_mut14 or GST-p12_WT were transiently-expressed in 293T cells cultured in light (R0/K0), medium (R6/K4) and heavy (R10/K8) SILAC media, respectively. Mitotic cell lysates were subsequently used for glutathione-sepharose bead pull-down assays. Bead eluates were pooled in a 1:1:1 ratio and then analysed by LC-MS/MS. […] (XLSX) Click here for additional data file.

[4] = test system: nucleosome binding to immobilised p12 CTD peptides; assay: BLI competition, nucleosome binding to immobilised p12 CTD peptides; conditions: soluble hCBS 100 μM
Procedure: To identify whether p12 binds to the same nucleosomal docking site as the CBS from PFV Gag, we then tested the ability of p12 CTD peptides to block the binding of nucleosomal arrays to hCBS and vice versa (Fig 9E and 9F).
The binding of PFV hCBS and p12 CTD peptides to recombinant H3.3 poly-nucleosomes (Active Motif) was measured using biolayer interferometry on an Octet RED system (Pall ForteBio Corp). The peptides were synthesised with a N-terminal biotin tag and GGGG linker. The Mo-MLV, FeLV and GaLV p12 CTD peptide sequences used are highlighted in bold in Fig 5C. A negative control was included that contained an R66A change in the Mo-MLV p12_M63I CTD peptide. Mo-MLV phos p12_M63I CTD was also synthesised with a phosphorylated S61 residue. The hCBS (positive control) sequence used corresponds to the CBS of PFV Gag ([…]). The biotinylated peptides were loaded onto streptavidin biosensors (Pall ForteBio Corp) at 0.5 μg/ml for 120 s in 10 mM HEPES pH 7.5, 150 mM NaCl, 0.005% (v/v) Tween 20. Following a buffer wash, the biosensors were incubated with serially-diluted nucleosome preparations (~0.5–250 nM) for 900–5400 s to measure association. Experiments were performed at 25°C and sample plates were agitated at 1000 rpm. Equilibrium binding amplitudes were determined by exponential least squares curve fitting of the association phase. The estimated binding amplitudes were then plotted against approximate nucleosome concentrations on GraphPad Prism 7. Equilibrium binding constant (Kd) and maximum specific binding (Bmax) were calculated by fitting the data to a non-linear regression model. Experiments were performed at least in duplicate and the data pooled for fitting. For competition assays, soluble non-biotin tagged peptides were added to the nucleosomal arrays at 100 μM to inhibit nucleosome binding prior to recording BLI measurements with biotinylated peptide immobilised on sensor probes. The non-biotin tagged peptide sequences were: hCBS—[…]; hCBS_L539A/R540A - […]; p12_WT—[…]; p12_R66A - […].

| Compound | Normalised (PSMs/Length) (GST-p12_WT; Replicate 1) | PSMs (GST-p12_WT; Replicate 1) | PSMs/Length (GST-p12_WT; Replicate 1) | SDs from the mean (GST-p12_WT; Replicate 1) | Normalised (PSMs/Length) (GST-p12_WT; Replicate 2) | PSMs (GST-p12_WT; Replicate 2) | PSMs/Length (GST-p12_WT; Replicate 2) | SDs from the mean (GST-p12_WT; Replicate 2) | other results |
| --- | --- | --- | --- | --- | --- | --- | --- | --- | --- |
| [Cl-].[Li+] [LiCl] | – | – | – | – | – | – | – | – | inhibition of GSK3 [1]: shown to inhibit GSK3; effect on chromatin pull down ([2]; LiCl 40 mM): no significant effect; effect on GST-p12_M63I phosphorylation ([3]; LiCl 40 mM, 3.5 h with nocodazole and 10 μM MG132): little effect |
| CC[C@H](CO)Nc1nc(NCc2ccccc2)c2ncn(C(C)C)c2n1 [roscovitine] | – | – | – | – | – | – | – | – | reduction of H2B precipitation by kinase inhibitor ([2]; roscovitine 75 μM, kenpaullone 40 μM): ~ 1.5 fold; reduction of GST-p12_M63I phosphorylation by kinase inhibitor ([3]; 3.5 h with nocodazole and 10 μM MG132, LiCl 40 mM, roscovitine 75 μM, kenpaullone 40 μM): ~ 1.5 fold |
| Clathrin heavy chain 1: clathrin heavy chain, Q00610 | 49.383 | 90 | 0.05373 | 7.774 | 51.3165 | 96 | 0.05731 | 7.772 | – |
| Inner centromere protein: cDNA FLJ31633, highly similar to this protein (fragment), B3KPD3 | 2.444 | 2 | 0.00266 | 6.525 | 1.191 | 1 | 0.00133 | 13.4521 | – |
| NEDD4-like E3 ubiquitin-protein ligase WWP2: O00308 | 9.508 | 9 | 0.01034 | – | 9.262 | 9 | 0.01034 | 11.5377 | – |
| NQGGYNLRPRTYQP [soluble hCBS, soluble non-biotin tagged hCBS peptide] | – | – | – | – | – | – | – | – | competition with binding of immobilised FeLV to nucleosomal arrays [4]: could compete with the binding; competition with binding of immobilised GaLV to nucleosomal arrays [4]: could compete with the binding; competition with binding of immobilised Mo-MLV p12_M63I to nucleosomal arrays [4]: could compete with the binding; competition with binding of immobilised Mo-MLV p12_WT to nucleosomal arrays [4]: could compete with the binding |
| Phosphatidylinositol-4-phosphate 3-kinase C2domain-containing alpha polypeptide: cDNA FLJ53905, highly similar to this protein, B4DG55 | 2.815 | 4 | 0.003063 | – | 6.17 | 9 | 0.006891 | 6.685 | – |
| Protein transport protein Sec16A: F1T0I1 | 1.969 | 5 | 0.002142 | 3.112 | 1.918 | 5 | 0.002142 | 2.575 | – |
